pKi: −log10 of the molar value.
Each molecule was assayed against GST-tagged-Wee1 kinase (Homo sapiens, UniProt P30291) (assay: Wee1 time-resolved fluorescence equilibrium binding assay (displacement of Oregon Green-labeled ATP-competitive kinase probe)).
Protocol: Wee1 kinase was assayed using a time-resolved fluorescence equilibrium binding assay monitoring displacement of a rapidly reversible Oregon Green-labeled ATP-competitive kinase probe (N-(2-(2-(2-(4-(4-(5-chloro-4-(2-(1-hydroxycyclobutyl)thiazol-5-yl)-1H-pyrrolo[2,3-b]pyridin-2-yl)phenyl)piperazin-1-yl)ethoxy)ethoxy)ethyl)-2′,7′-difluoro-3′,6′-dihydroxy-3-oxo-3H-spiro[isobenzofuran-1,9′-xanthene]-5-carboxamide) by competitive Wee1 inhibitors.

Sequence of GST-tagged-Wee1 kinase (P30291 whole entry): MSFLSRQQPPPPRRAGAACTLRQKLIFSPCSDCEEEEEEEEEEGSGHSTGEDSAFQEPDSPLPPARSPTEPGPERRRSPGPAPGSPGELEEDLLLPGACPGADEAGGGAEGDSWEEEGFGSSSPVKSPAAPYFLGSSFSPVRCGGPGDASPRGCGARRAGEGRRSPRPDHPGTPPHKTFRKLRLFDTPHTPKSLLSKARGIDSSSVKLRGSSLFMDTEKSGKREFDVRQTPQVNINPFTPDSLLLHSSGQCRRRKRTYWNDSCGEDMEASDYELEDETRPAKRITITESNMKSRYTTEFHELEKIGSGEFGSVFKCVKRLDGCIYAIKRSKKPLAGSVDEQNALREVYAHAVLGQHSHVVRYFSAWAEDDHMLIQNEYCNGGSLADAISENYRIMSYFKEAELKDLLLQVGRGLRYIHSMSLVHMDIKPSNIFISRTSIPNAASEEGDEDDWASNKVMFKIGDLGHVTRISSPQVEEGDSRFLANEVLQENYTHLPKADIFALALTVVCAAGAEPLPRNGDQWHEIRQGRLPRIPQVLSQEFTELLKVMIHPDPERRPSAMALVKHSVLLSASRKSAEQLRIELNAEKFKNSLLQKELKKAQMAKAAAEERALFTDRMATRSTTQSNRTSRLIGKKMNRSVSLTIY

Q: With `CN1CCC(n2nc(-c3ccccn3)c3nc(Nc4ccc5c(c4)CNCC5(C)C)ncc3c2=O)CC1` [Example 329, 2-[(4,4-dimethyl-1,2,3,4-tetrahydroisoquinolin-7-yl)amino]-6-(1-methylpiperidin-4-yl)-8-(pyridin-2-yl)pyrimido[4,5-d]pyridazin-5(6H)-one] as the molecule, how does the pKi read?
A: Its pKi is 7.57.

Q: With `Cc1nn(-c2ccccc2Cl)c(=O)c2cnc(Nc3ccc4c(c3)CC(N(C)C)C4)nc12` (centres unmarked) [Example 484, 6-(2-chlorophenyl)-2-{[2-(dimethylamino)-2,3-dihydro-1H-inden-5-yl]amino}-8-methylpyrimido[4,5-d]pyridazin-5(6H)-one] as the molecule, how does the pKi read?
A: Its pKi is 9.77.

Q: With `CNC(=O)c1cccc(-c2nn(-c3c(Cl)cccc3Cl)c(=O)c3cnc(Nc4ccc(N5CCN(C)CC5)cc4)nc23)c1` [Example 191, 3-[6-(2,6-dichlorophenyl)-2-{[4-(4-methylpiperazin-1-yl)phenyl]amino}-5-oxo-5,6-dihydropyrimido[4,5-d]pyridazin-8-yl]-N-methylbenzamide] as the molecule, how does the pKi read?
A: Its pKi is 10.52.

Q: `CN1CCN(c2ccc(Nc3ncc4c(=O)n(-c5c(Cl)cccc5Cl)nc(-c5cccc(C(=O)O)c5)c4n3)cc2)CC1` [Example 190, 3-[6-(2,6-dichlorophenyl)-2-{[4-(4-methylpiperazin-1-yl)phenyl]amino}-5-oxo-5,6-dihydropyrimido[4,5-d]pyridazin-8-yl]benzoic acid] was tested. Which pKi did it give?
A: The pKi was 11.00.

Q: `Cc1nn(-c2c(Cl)cccc2Cl)c(=O)c2cnc(Nc3cccc(N4CCN(C5CCC5)CC4)c3)nc12` [Example 508, 2-{[3-(4-cyclobutylpiperazin-1-yl)phenyl]amino}-6-(2,6-dichlorophenyl)-8-methylpyrimido[4,5-d]pyridazin-5(6H)-one] was tested. Which pKi did it give?
A: Its pKi is 8.70.

Q: How did the pKi turn out when `Cc1cccc(-c2nn(-c3ccccc3C)c(=O)c3cnc(Nc4ccc(N5CCN(C)CC5)cc4)nc23)c1` [Example 52, 6-(2-methylphenyl)-8-(3-methylphenyl)-2-{[4-(4-methylpiperazin-1-yl)phenyl]amino}pyrimido[4,5-d]pyridazin-5(6H)-one] was run?
A: Its pKi is 9.00.

Q: With `CN1CCN(c2ccc(Nc3ncc4c(=O)n(-c5c(Cl)cccc5Cl)nc(-c5cncs5)c4n3)cc2)CC1` [Example 307, 6-(2,6-dichlorophenyl)-2-{[4-(4-methylpiperazin-1-yl)phenyl]amino}-8-(1,3-thiazol-5-yl)pyrimido[4,5-d]pyridazin-5(6H)-one] as the molecule, how does the pKi read?
A: The pKi was 8.85.

Q: How did the pKi turn out when `Cc1cccc(Cl)c1-n1nc(C)c2nc(Nc3ccc(N4CCN(CCCN(C)C)CC4)cc3)ncc2c1=O` [Example 500, 6-(2-chloro-6-methylphenyl)-2-[(4-{4-[3-(dimethylamino)propyl]piperazin-1-yl}phenyl)amino]-8-methylpyrimido[4,5-d]pyridazin-5(6H)-one] was run?
A: Its pKi is 9.29.

Q: With `Cc1ccccc1-n1nc(-c2ccccc2)c2nc(Nc3ccc(N4CCN(C)CC4)cc3)ncc2c1=O` [Example 28, 6-(2-methylphenyl)-2-{[4-(4-methylpiperazin-1-yl)phenyl]amino}-8-phenylpyrimido[4,5-d]pyridazin-5(6H)-one] as the molecule, how does the pKi read?
A: Its pKi is 9.10.

Q: With `O=c1c2cnc(Nc3ccc4c(c3)CNCC4)nc2c(C2CC2)nn1-c1c(Cl)cccc1Cl` [Example 390, 8-cyclopropyl-6-(2,6-dichlorophenyl)-2-(1,2,3,4-tetrahydroisoquinolin-7-ylamino)pyrimido[4,5-d]pyridazin-5(6H)-one] as the molecule, how does the pKi read?
A: The pKi was 9.39.

Q: With `Cc1ccccc1-n1nc(-c2ccccc2)c2nc(Nc3ccc(CN(C)C)cc3)ncc2c1=O` [Example 111, 2-({4-[(dimethylamino)methyl]phenyl}amino)-6-(2-methylphenyl)-8-phenylpyrimido[4,5-d]pyridazin-5(6H)-one] as the molecule, how does the pKi read?
A: The pKi was 8.60.

Q: With `O=c1c2cnc(Nc3ccc4c(c3)CNCC43CC3)nc2c(-c2nccs2)nn1-c1c(Cl)cccc1Cl` [Example 345, 6-(2,6-dichlorophenyl)-2-(2′,3′-dihydro-1′H-spiro[cyclopropane-1,4′-isoquinolin]-7′-ylamino)-8-(1,3-thiazol-2-yl)pyrimido[4,5-d]pyridazin-5(6H)-one] as the molecule, how does the pKi read?
A: The pKi was 9.47.

Q: With `O=C1CCCN1c1ccc(-c2nn(-c3c(Cl)cccc3Cl)c(=O)c3cnc(Nc4ccc(C5CCNCC5)cc4)nc23)cc1` [Example 254, 6-(2,6-dichlorophenyl)-8-[4-(2-oxopyrrolidin-1-yl)phenyl]-2-{[4-(piperidin-4-yl)phenyl]amino}pyrimido[4,5-d]pyridazin-5(6H)-one] as the molecule, how does the pKi read?
A: The pKi was 9.52.

Q: How did the pKi turn out when `CN1CCC(n2nc(-c3ccccn3)c3nc(Nc4ccc5c(c4)CN(C)CC5(C)C)ncc3c2=O)CC1` [Example 328, 6-(1-methylpiperidin-4-yl)-8-(pyridin-2-yl)-2-[(2,4,4-trimethyl-1,2,3,4-tetrahydroisoquinolin-7-yl)amino]pyrimido[4,5-d]pyridazin-5(6H)-one] was run?
A: The pKi was 6.66.

Q: `CN1CCN(C(=O)c2cccc(-c3nn(-c4c(Cl)cccc4Cl)c(=O)c4cnc(Nc5ccc(N6CCN(C)CC6)cc5)nc34)c2)CC1` [Example 192, 6-(2,6-dichlorophenyl)-8-{3-[(4-methylpiperazin-1-yl)carbonyl]phenyl}-2-{[4-(4-methylpiperazin-1-yl)phenyl]amino}pyrimido[4,5-d]pyridazin-5(6H)-one] was tested. Which pKi did it give?
A: Its pKi is 10.70.

Q: `O=c1c2cnc(Nc3ccc4c(c3)CNCC43CC3)nc2c(-c2cncs2)nn1-c1c(Cl)cccc1Cl` [Example 315, 6-(2,6-dichlorophenyl)-2-(2′,3′-dihydro-1′H-spiro[cyclopropane-1,4′-isoquinolin]-7′-ylamino)-8-(1,3-thiazol-5-yl)pyrimido[4,5-d]pyridazin-5(6H)-one] was tested. Which pKi did it give?
A: Its pKi is 8.72.

Q: `CN1CCN(c2ccc(Nc3ncc4c(=O)n(-c5ccccc5Cl)nc(-c5ccc(Cl)cc5Cl)c4n3)cc2)CC1` [Example 38, 6-(2-chlorophenyl)-8-(2,4-dichlorophenyl)-2-{[4-(4-methylpiperazin-1-yl)phenyl]amino}pyrimido[4,5-d]pyridazin-5(6H)-one] was tested. Which pKi did it give?
A: Its pKi is 7.62.

Q: `COc1ccccc1-n1nc(C2CCCC2)c2nc(Nc3ccc(N4CCN(C)CC4)cc3)ncc2c1=O` [Example 57, 8-cyclopentyl-6-(2-methoxyphenyl)-2-{[4-(4-methylpiperazin-1-yl)phenyl]amino}pyrimido[4,5-d]pyridazin-5(6H)-one] was tested. Which pKi did it give?
A: Its pKi is 8.15.

Q: `CN1CCN(c2ccc(Nc3ncc4c(=O)n(-c5c(Cl)cccc5Cl)nc(-c5ccc(N6CCCC6=O)cc5)c4n3)cc2)CC1` [Example 244, 6-(2,6-dichlorophenyl)-2-{[4-(4-methylpiperazin-1-yl)phenyl]amino}-8-[4-(2-oxopyrrolidin-1-yl)phenyl]pyrimido[4,5-d]pyridazin-5(6H)-one] was tested. Which pKi did it give?
A: Its pKi is 9.30.

Q: With `CN1Cc2cc(Nc3ncc4c(=O)n(-c5c(Cl)cccc5Cl)nc(-c5ccccn5)c4n3)ccc2C2(CC2)C1` [Example 104, 6-(2,6-dichlorophenyl)-2-[(2′-methyl-2′,3′-dihydro-1′H-spiro[cyclopropane-1,4′-isoquinolin]-7′-yl)amino]-8-(pyridin-2-yl)pyrimido[4,5-d]pyridazin-5(6H)-one] as the molecule, how does the pKi read?
A: The pKi was 9.22.

Q: How did the pKi turn out when `Cc1nn(-c2c(Cl)cccc2Cl)c(=O)c2cnc(Nc3ccc(N4CCNCC4)cc3)nc12` [Example 393, 6-(2,6-dichlorophenyl)-8-methyl-2-{[4-(piperazin-1-yl)phenyl]amino}pyrimido[4,5-d]pyridazin-5(6H)-one] was run?
A: Its pKi is 9.00.

Q: How did the pKi turn out when `Cc1nn(-c2c(Cl)cccc2Cl)c(=O)c2cnc(Nc3ccc(CN4CCN(C)CC4)cc3)nc12` [Example 454, 6-(2,6-dichlorophenyl)-8-methyl-2-({4-[(4-methylpiperazin-1-yl)methyl]phenyl}amino)pyrimido[4,5-d]pyridazin-5(6H)-one] was run?
A: The pKi was 8.92.

Q: `CN1CCN(c2ccc(Nc3ncc4c(=O)n(-c5ccccc5)nc(-c5ccccc5F)c4n3)cc2)CC1` [Example 37, 8-(2-fluorophenyl)-2-{[4-(4-methylpiperazin-1-yl)phenyl]amino}-6-phenylpyrimido[4,5-d]pyridazin-5(6H)-one] was tested. Which pKi did it give?
A: The pKi was 7.74.

Q: With `CN1CCN(c2ccc(Nc3ncc4c(=O)n(-c5c(Cl)cccc5Cl)nc(-c5cccc(N6CCCCC6=O)c5)c4n3)cc2)CC1` [Example 93, 6-(2,6-dichlorophenyl)-2-{[4-(4-methylpiperazin-1-yl)phenyl]amino}-8-[3-(2-oxopiperidin-1-yl)phenyl]pyrimido[4,5-d]pyridazin-5(6H)-one] as the molecule, how does the pKi read?
A: Its pKi is 10.00.

Q: With `CC(O)Cn1nc(-c2ccccn2)c2nc(Nc3ccc4c(c3)CN(C)CC4(C)C)ncc2c1=O` (centres unmarked) [Example 288, 6-(2-hydroxypropyl)-8-(pyridin-2-yl)-2-[(2,4,4-trimethyl-1,2,3,4-tetrahydroisoquinolin-7-yl)amino]pyrimido[4,5-d]pyridazin-5(6H)-one] as the molecule, how does the pKi read?
A: Its pKi is 6.76.

Q: With `Cc1nn(-c2c(Cl)cccc2Cl)c(=O)c2cnc(Nc3ccc4c(c3)CC(N(C)C)C4)nc12` (centres unmarked) [Example 397, 6-(2,6-dichlorophenyl)-2-{[2-(dimethylamino)-2,3-dihydro-1H-inden-5-yl]amino}-8-methylpyrimido[4,5-d]pyridazin-5(6H)-one] as the molecule, how does the pKi read?
A: Its pKi is 9.00.

Q: With `C=CCn1nc(-c2ccco2)c2nc(Nc3ccc(CN(C)C)cc3)ncc2c1=O` [Example 137, 6-allyl-2-({4-[(dimethylamino)methyl]phenyl}amino)-8-(2-furyl)pyrimido[4,5-d]pyridazin-5(6H)-one] as the molecule, how does the pKi read?
A: The pKi was 7.66.

Q: `Cc1nn(-c2c(Cl)cncc2Cl)c(=O)c2cnc(Nc3ccc4c(c3)CNCC43CC3)nc12` [Example 447, 6-(3,5-dichloropyridin-4-yl)-2-(2′,3′-dihydro-1′H-spiro[cyclopropane-1,4′-isoquinolin]-7′-ylamino)-8-methylpyrimido[4,5-d]pyridazin-5(6H)-one] was tested. Which pKi did it give?
A: The pKi was 9.40.

Q: How did the pKi turn out when `CN1CCN(Cc2cccc(-c3nn(-c4c(Cl)cccc4Cl)c(=O)c4cnc(Nc5ccc(N6CCN(C)CC6)cc5)nc34)c2)CC1` [Example 215, 6-(2,6-dichlorophenyl)-8-{3-[(4-methylpiperazin-1-yl)methyl]phenyl}-2-{[4-(4-methylpiperazin-1-yl)phenyl]amino}pyrimido[4,5-d]pyridazin-5(6H)-one] was run?
A: Its pKi is 9.70.

— patent publication US8796289B2 (AbbVie Inc., priority 2011, dated 2014)
